Laboratory results reported in patent US20220175768A1, “FGFR TYROSINE KINASE INHIBITORS FOR THE TREATMENT OF UROTHELIAL CARCINOMA” (Janssen Pharmaceutica NV, priority 2019, published 2022).
Like-named read-outs stand apart in the source and are kept apart here.

Assays:
[1] = system: metastatic or surgically unresectable urothelial cancer harboring select FGFR genetic alterations; details: for ORR, BIRC assessment / ORR, investigator assessment: chemotherapy-refractory patients in Regimen 3
Description: The study comprises a Screening Phase (molecular screening at any time prior to first dose and study screening within 30 days of first dose), a treatment phase, and a post-treatment follow-up phase. The treatment phase comprises the period from first dose until the end-of-treatment visit. The follow-up phase extends until the subject has died, withdraws consent, is lost to follow-up, or the end of study, whichever comes first.
Included patients were adults with measurable urothelial cancer per Response Evaluation Criteria in Solid Tumors version 1.1.
Patients were required to have at least 1 FGFR2/FGFR3 mutation or fusion per central lab testing of RNA from formalin-fixed, paraffin-embedded tumor samples, using a custom reverse transcriptase polymerase chain reaction assay.
The primary end point of this study is Objective Response Rate to the selected regimen (Regimen 3).
Secondary end points include progression-free survival (PFS), response duration, Overall Survival, safety, response rate in biomarker-specific subgroups, and pharmacokinetics.
The study was designed to enroll 180 patients with specified FGFR alterations. Of these, ≥88 were required in the selected regimen. […] Responses were assessed by investigators and an independent radiological review committee. Progression-free survival and overall survival were estimated using Kaplan-Meier product limit method. Data from patients who were progression free and alive or with unknown status were censored at last tumor assessment. Efficacy end points were analysed at primary analysis cut-off.

[2] = 187 patients with cancer; large effect i.e. >20 ms
[3] = Pharmacokinetics in specific populations; assay type: in vivo, human; details: age 21-88 years, sex, race, body weight 36-132 kg, mild or moderate renal impairment, mild hepatic impairment
[4] = Chemotherapy-refractory patients in Regimen 3 (N = 87)
[5] = Regimen 1, 10 mg intermittent (n = 33)
[6] = Regimen 2, 6 mg continuous (n = 78)
[7] = Regimen 3, of 97 patients with ≥1 postbaseline disease evaluation

SMILES: COc1cc(OC)cc(N(CCNC(C)C)c2ccc3ncc(-c4cnn(C)c4)nc3c2)c1 [erdafitinib, N-(3,5-dimethoxy-phenyl)-N′-(1-methylethyl)-N-[3-(1-methyl-1H-pyrazol-4-yl)quinoxalin-6-yl]ethane-1,2-diamine]
- Objective response rate per investigator assessment ([1]; 8 mg non-uptitrated continuous dose regimen, Regimen 3): (34.5) %
- Objective response rate per investigator assessment ([1]; 8 mg uptitrated to 9 mg continuous dose regimen, Regimen 3): (48.8) %
- Objective response rate per investigator assessment ([1]; Bone metastases, Regimen 1, 10 mg intermittent): (17) %
- Objective response rate per investigator assessment ([1]; Bone metastases, Regimen 2, 6 mg continuous): (40) %
- Objective response rate per investigator assessment ([1]; Bone metastases, Regimen 3, 8 mg continuous): (31.8) %
- Objective response rate per investigator assessment ([1]; Chemotherapy-naïve, Regimen 1, 10 mg intermittent): (25) %
- Objective response rate per investigator assessment ([1]; Chemotherapy-naïve, Regimen 2, 6 mg continuous): (0) %
- Objective response rate per investigator assessment ([1]; Chemotherapy-naïve, Regimen 3, 8 mg continuous): (41.7) %
- Complete response (CR), investigator assessment [1, 4]: 3.4%
- Partial response (PR), investigator assessment [1, 4]: 36.8%
- ORR, BIRC assessment ([1]; FGFR2 Fusion (N = 6)): 0%
- ORR, BIRC assessment ([1]; FGFR3 Fusion (N = 18)): 11.1%
- ORR, BIRC assessment ([1]; FGFR3 Point Mutation (N = 64)): 40.6%
- ORR, investigator assessment ([1]; FGFR3 Point Mutation (N = 64)): 48.4%
- ORR, investigator assessment ([1]; FGFR Fusion (N = 23)): 17.4%
- Objective response rate per investigator assessment ([1]; Liver metastases, Regimen 1, 10 mg intermittent): (27) %
- Objective response rate per investigator assessment ([1]; Liver metastases, Regimen 2, 6 mg continuous): (24) %
- Objective response rate per investigator assessment ([1]; Liver metastases, Regimen 3, 8 mg continuous): (35.0) %
- Objective response rate per investigator assessment ([1]; Lower tract disease, Regimen 1, 10 mg intermittent): (9) %
- Objective response rate per investigator assessment ([1]; Lower tract disease, Regimen 2, 6 mg continuous): (39) %
- Objective response rate per investigator assessment ([1]; Lower tract disease, Regimen 3, 8 mg continuous): (39.5) %
- Objective response rate per investigator assessment ([1]; Lung metastases, Regimen 1, 10 mg intermittent): (27) %
- Objective response rate per investigator assessment ([1]; Lung metastases, Regimen 2, 6 mg continuous): (41) %
- Objective response rate per investigator assessment ([1]; Lung metastases, Regimen 3, 8 mg continuous): (40.4) %
- Objective response rate per investigator assessment ([1]; Lymph node metastases only, Regimen 1, 10 mg intermittent): (0) %
- Objective response rate per investigator assessment ([1]; Lymph node metastases only, Regimen 2, 6 mg continuous): (67) %
- Objective response rate per investigator assessment ([1]; Lymph node metastases only, Regimen 3, 8 mg continuous): (33.3) %
- Objective response rate per investigator assessment ([1]; No. of lines of prior systemic therapy 0, Regimen 3, 8 mg continuous): (36.4) %
- Objective response rate per investigator assessment ([1]; No. of lines of prior systemic therapy 1, Regimen 3, 8 mg continuous): (37.8) %
- Objective response rate per investigator assessment ([1]; No. of lines of prior systemic therapy 2, Regimen 3, 8 mg continuous): (37.9) %
- Objective response rate per investigator assessment ([1]; No. of lines of prior systemic therapy 3, Regimen 3, 8 mg continuous): (60.0) %
- Objective response rate per investigator assessment ([1]; No. of lines of prior systemic therapy ≥4, Regimen 3, 8 mg continuous): (50.0) %
- Objective response rate per investigator assessment ([1]; Progressed or relapsed after chemotherapy, Regimen 1, 10 mg intermittent): (21) %
- Objective response rate per investigator assessment ([1]; Progressed or relapsed after chemotherapy, Regimen 2, 6 mg continuous): (37) %
- Objective response rate per investigator assessment ([1]; Progressed or relapsed after chemotherapy, Regimen 3, 8 mg continuous): (40.2) %
- Median progression-free survival per investigator assessment ([1]; Regimen 1): 4.8 months
- Overall survival rate at 12 months ([1]; Regimen 1): 31%
- Progression-free survival rate at 12 months ([1]; Regimen 1): 18%
- Complete response per investigator assessment [1, 5]: 1 no.
- Median time to response [1, 5]: 1.4 mo
- Median overall survival ([1]; Regimen 1, median follow-up 22.9 months): 7.5 months
- Median progression-free survival per investigator assessment ([1]; Regimen 2): 5.3 months
- Overall survival rate at 12 months ([1]; Regimen 2): 33%
- Progression-free survival rate at 12 months ([1]; Regimen 2): 11%
- Complete response per investigator assessment [1, 6]: 3 no.
- Median time to response [1, 6]: 1.4 mo
- Median overall survival ([1]; Regimen 2, median follow-up 18.5 months): 8.6 months
- Responses maintained for >12 months ([1]; Regimen 3): roughly 30%
- Survival rate at 12 months ([1]; Regimen 3): 55%
- Median time to response ([1]; Regimen 3, 8 mg continuous (n = 99)): 1.4 mo
- Median progression-free survival ([1]; Regimen 3, 8 mg per day continuous (FIG. 5A)): 5.5 months
- Median overall survival ([1]; Regimen 3, 8 mg per day continuous (FIG. 5B)): 13.8 months
- Patients who responded ([1]; Regimen 3, FGFR3-TACC3 V1 fusion (n=11)): 36.4%
- Disease stabilization lasting >6 months ([1]; Regimen 3, among 39 patients with stable disease): 33%
- Additional patients with stable disease ([1]; Regimen 3, patients with FGFR mutations (n=74)): 26 patients
- Progression-free survival rate at 12 months ([1]; Regimen 3, per investigator assessment): 19%
- Patients with maximum tumor reduction between 30% and 100% [1, 7]: 49%
- Patients with reduction in sum of target lesion diameters [1, 7]: 77%
- Objective response rate per investigator assessment ([1]; Upper tract disease, Regimen 1, 10 mg intermittent): (46) %
- Objective response rate per investigator assessment ([1]; Upper tract disease, Regimen 2, 6 mg continuous): (23) %
- Objective response rate per investigator assessment ([1]; Upper tract disease, Regimen 3, 8 mg continuous): (43.5) %
- Objective response rate per investigator assessment ([1]; With FGFR2/3 fusions, Regimen 1, 10 mg intermittent): (0) %
- Objective response rate per investigator assessment ([1]; With FGFR2/3 fusions, Regimen 2, 6 mg continuous): (17) %
- Objective response rate per investigator assessment ([1]; With FGFR3 mutations, Regimen 1, 10 mg intermittent): (22) %
- Objective response rate per investigator assessment ([1]; With FGFR3 mutations, Regimen 2, 6 mg continuous): (36) %
- Objective response rate per investigator assessment ([1]; With visceral metastases, Regimen 1, 10 mg intermittent): (29) %
- Objective response rate per investigator assessment ([1]; With visceral metastases, Regimen 2, 6 mg continuous): (32) %
- Objective response rate per investigator assessment ([1]; With visceral metastases, Regimen 3, 8 mg continuous): (38.5) %
- Objective response rate per investigator assessment ([1]; Without visceral metastases, Regimen 1, 10 mg intermittent): (0) %
- Objective response rate per investigator assessment ([1]; Without visceral metastases, Regimen 2, 6 mg continuous): (42) %
- Objective response rate per investigator assessment ([1]; Without visceral metastases, Regimen 3, 8 mg continuous): (47.6) %
- Effect on the QTc interval [2]: no large effect
- Trends in pharmacokinetics in specific populations [3]: No clinically meaningful trends
